The record followed here is ChEMBL document CHEMBL5584228, “Novel saturated 1,2,4-trioxanes and their antimalarial activity against multidrug resistant Plasmodium yoelii nigeriensis in Swiss mice model via oral route” (2024).

Structures are written as SMILES. Active and inactive are the calls of the source. No cut-off for these calls is given here. A value given as a limit tells only on which side of the number the result lay.

The subject of test [1] is Plasmodium yoelii nigeriensis. Nature of the test: Antimalarial activity against multi-drug resistant Plasmodium yoelii nigeriensis infected in swiss mouse model at 96 mg/kg, po administered for 4 days and measured within 6 to 8 days. Type of test: functional, organism-based. Particulars: time 6-8 day.
In test [2] the test system is Plasmodium yoelii nigeriensis. Nature of the test: Antimalarial activity against multi-drug resistant Plasmodium yoelii nigeriensis infected in swiss mouse model assessed as suppression of parasitemia at 96 mg/kg, po administered for 4 days relative to control. In kind it is functional. Particulars: time 4 day.
In test [3] the test system is Plasmodium yoelii nigeriensis. Put plainly: Antimalarial activity against multi-drug resistant Plasmodium yoelii nigeriensis infected in swiss mouse model assessed as suppression of parasitemia at 48 mg/kg, po administered for 4 days relative to control. Type of test: functional. Particulars: time 4 day.
Test [4] concerns Plasmodium yoelii nigeriensis. Nature of the test: Antimalarial activity against multi-drug resistant Plasmodium yoelii nigeriensis infected in swiss mouse model at 24 mg/kg, po administered for 4 days and measured within 6 to 8 days. Type of test: functional, organism-based. Particulars: time 6-8 day.
Test [5] deals with Plasmodium yoelii nigeriensis. Put plainly: Antimalarial activity against multi-drug resistant Plasmodium yoelii nigeriensis infected in swiss mouse model at 48 mg/kg, po administered for 4 days and measured within 6 to 8 days. Type of test: functional, organism-based. To be noted: time 6-8 day.
Test [6] concerns Plasmodium yoelii nigeriensis. Nature of the test: Antimalarial activity against multi-drug resistant Plasmodium yoelii nigeriensis infected in swiss mouse model assessed as suppression of parasitemia at 24 mg/kg, po administered for 4 days relative to control. Type of test: functional. Particulars: time 4 day.
Test [7] concerns Plasmodium yoelii nigeriensis. Put plainly: Antimalarial activity against multi-drug resistant Plasmodium yoelii nigeriensis infected in swiss mouse model at 12 mg/kg, po administered for 4 days and measured within 6 to 8 days. To be noted: time 6-8 day. In kind it is functional, organism-based.
Test [8] relates to Plasmodium yoelii nigeriensis. Nature of the test: Antimalarial activity against multi-drug resistant Plasmodium yoelii nigeriensis infected in swiss mouse model assessed as suppression of parasitemia at 12 mg/kg, po administered for 4 days relative to control. In kind it is functional. To be noted: time 4 day.
The test system of test [9] is Plasmodium yoelii nigeriensis. Nature of the test: Antimalarial activity against multi-drug resistant Plasmodium yoelii nigeriensis infected in swiss mouse model assessed as suppression of parasitemia at 6 mg/kg, po administered for 4 days relative to control. Type of test: functional. To be noted: time 4 day.
Test [10] concerns Plasmodium yoelii nigeriensis. Put plainly: Antimalarial activity against multi-drug resistant Plasmodium yoelii nigeriensis infected in swiss mouse model assessed as animal survival at 12 to 48 mg/kg, po administered for 4 days and measured after 28 days. Type of test: functional. Particulars: dose 12-48 mg/kg, time 28 day.

`C[C@@H](c1ccc(Oc2ccccc2)cc1)C1COC2(OO1)C1CC3CC(C1)CC2C3` (stereo partly drawn): the outcome in test [1] was inactive. Also, the Activity in test [2] is on record as 100%.
As for `C[C@H](c1ccc(Oc2ccc3ccccc3c2)cc1)C1COC2(OO1)C1CC3CC(C1)CC2C3` (stereo partly drawn), the outcome in test [1] was Active. Moreover, the Activity in test [2] is 100%; in test [3] it was 60%.
As for `C=C(c1ccc(Oc2cccc3ccccc23)cc1)C1COC2(CCCCC2)OO1` (stereo not drawn), the outcome in test [1] was inactive. Moreover, the Activity in [2] is reported as 92.81%.
Turning to `C=C(c1ccc(Oc2ccccc2)cc1)C1COC2(CCCCC2)OO1` (stereo not drawn), the Activity in test [2] came to 100%.
In the case of `C=C(c1ccc(Oc2cccc3ccccc23)cc1)C1COC2(CCCC2)OO1` (stereo not drawn), in [4], the outcome was inactive. The outcome in [1] and in test [5] was Active. Moreover, the Activity in test [2], in test [3] and in test [6] was 100% throughout.
On to `C[C@@H](c1ccc(Oc2cccc3ccccc23)cc1)C1COC2(CCCC2)OO1` (stereo partly drawn), for which, in test [1], the outcome was inactive. Moreover, the Activity in [2] came to 100%.
Turning to `C[C@@H](c1ccc(Oc2ccc3ccccc3c2)cc1)C1COC2(CCCC2)OO1` (stereo partly drawn), the outcome in [1] was Active. Also, the Activity in [2] and in test [3] was 100% each time.
Consider `C[C@H](c1ccc(Oc2ccccc2)cc1)C1COC2(OO1)C1CC3CC(C1)CC2C3` (stereo partly drawn), for which, in test [1], the result was Active. Further, the Activity in test [2] and in [3] was 100% each time.
On to `C[C@H](c1ccc(Oc2ccccc2)cc1)C1COC2(CCCCC2)OO1` (stereo partly drawn), for which the outcome in [1] was Active. The Activity in [2] worked out at 100%; in test [3], 80%.
`C[C@H](c1ccc(Oc2ccccc2)cc1)C1COC2(CCCC2)OO1` (stereo partly drawn): the outcome in test [1] was Active. Further, the Activity was 100% in test [2] and 60% in [3].
Take `C=C(c1ccc(Oc2cccc3ccccc23)cc1)C1COC2(OO1)C1CC3CC(C1)CC2C3` (stereo not drawn): the result in test [1] was inactive. Further, in test [2], the Activity is given as 93.15%.
For the compound `C=C(c1ccc(Oc2ccc(-c3ccccc3)cc2)cc1)C1COC2(CCCC2)OO1` (stereo not drawn), the result in test [1] was Active. In addition, the Activity in test [2] and in [3] was 100% each time. In test [5], the outcome was inactive.
Turning to `C=C(c1ccc(Oc2ccc3ccccc3c2)cc1)C1COC2(CCCC2)OO1` (stereo not drawn), the result in [4] was inactive. Besides, the outcome in test [1] and in test [5] was Active. The Activity in test [2], in test [3] and in test [6] was 100% in each case.
With `C[C@@H](c1ccc(Oc2ccc3ccccc3c2)cc1)C1COC2(OO1)C1CC3CC(C1)CC2C3` (stereo partly drawn), the outcome in [1] was inactive. Besides, the Activity in test [2] is reported as 100%.
`C=C(c1ccc(Oc2ccccc2)cc1)C1COC2(OO1)C1CC3CC(C1)CC2C3` (stereo not drawn): the Activity in [2] was 100%.
For the compound `C[C@H](c1ccc(Oc2ccc3ccccc3c2)cc1)C1COC2(CCCC2)OO1` (stereo partly drawn), in [7], the result was Active. Further, the Activity in test [8] was found to be 100%; in [9] it was 60%; in [3] it was 100%; in [6], 100%. Also, the Survival in [10] is more than 28 days.
Regarding `C[C@@H](c1ccc(Oc2ccc(-c3ccccc3)cc2)cc1)C1COC2(CCCC2)OO1` (stereo partly drawn), the result in test [1] was inactive. The Activity in test [2] was found to be 100%.
For `C[C@@H](c1ccc(Oc2ccc(-c3ccccc3)cc2)cc1)C1COC2(CCCCC2)OO1` (stereo partly drawn), in that order: “inactive” and 100%.
On to `C[C@@H](c1ccc(Oc2cccc3ccccc23)cc1)C1COC2(OO1)C1CC3CC(C1)CC2C3` (stereo partly drawn), for which, in [1], the outcome was inactive. In test [2], the Activity came out at 70%.
`C=C(c1ccc(Oc2ccc3ccccc3c2)cc1)C1COC2(OO1)C1CC3CC(C1)CC2C3` (stereo not drawn): the Activity in [2] is given as 100%.
On to `C[C@@H](c1ccc(Oc2ccccc2)cc1)C1COC2(CCCC2)OO1` (stereo partly drawn), for which the result in [1] was inactive. In addition, the Activity in test [2] was 80%.
For `C=C(c1ccc(Oc2ccc(-c3ccccc3)cc2)cc1)C1COC2(CCCCC2)OO1` (stereo not drawn), in that order: “inactive” and 84.39%.
For `C[C@H](c1ccc(Oc2ccc(-c3ccccc3)cc2)cc1)C1COC2(CCCC2)OO1` (stereo partly drawn), the Activity came out at 60% in test [8], 100% in test [3] and 100% in test [6].
In the case of `C[C@H](c1ccc(Oc2cccc3ccccc23)cc1)C1COC2(CCCC2)OO1` (stereo partly drawn), the Activity was 80% in test [8], 100% in [3] and 100% in test [6].
Consider `C=C(c1ccc(Oc2ccc(-c3ccccc3)cc2)cc1)C1COC2(OO1)C1CC3CC(C1)CC2C3` (stereo not drawn), for which the Activity in test [2] is given as 100%.
On to `C[C@@H](c1ccc(Oc2ccc(-c3ccccc3)cc2)cc1)C1COC2(OO1)C1CC3CC(C1)CC2C3` (stereo partly drawn), for which the result in test [1] was inactive. In addition, the Activity in [2] is recorded as 90%.
For the compound `C[C@@H](c1ccc(Oc2ccccc2)cc1)C1COC2(CCCCC2)OO1` (stereo partly drawn), the outcome in test [1] was inactive. For the same compound, the Activity in [2] came to 100%.
Turning to `C[C@H](c1ccc(Oc2ccc(-c3ccccc3)cc2)cc1)C1COC2(OO1)C1CC3CC(C1)CC2C3` (stereo partly drawn), in [1], the outcome was Active. Besides, the Activity in [2] and in [3] was 100% throughout.
Regarding `C[C@H](c1ccc(Oc2cccc3ccccc23)cc1)C1COC2(OO1)C1CC3CC(C1)CC2C3` (stereo partly drawn), the Activity in test [2] turned out to be 100%.
For the compound `CCO[C@H]1O[C@@H]2O[C@@]3(C)CC[C@H]4[C@H](C)CC[C@@H]([C@H]1C)[C@@]24OO3` [ARTEMOTIL], the outcome in [5] was Active. Moreover, the Activity in test [3] and in test [6] was 100% each time.
As to `C[C@H](c1ccc(Oc2ccc(-c3ccccc3)cc2)cc1)C1COC2(CCCCC2)OO1` (stereo partly drawn), in [2], the Activity is given as 100%.
On the same count and under the same terms, to `C=C(c1ccc(Oc2ccccc2)cc1)C1COC2(CCCC2)OO1` (stereo not drawn) belongs 100%.
Still for that read-out and setting: to `C[C@H](c1ccc(Oc2cccc3ccccc23)cc1)C1COC2(CCCCC2)OO1` (stereo partly drawn) belongs 100%.
For the compound `C[C@@H](c1ccc(Oc2cccc3ccccc23)cc1)C1COC2(CCCCC2)OO1` (stereo partly drawn), the outcome in [1] was inactive. Moreover, the Activity in test [2] is on record as 100%.
